Data on 1 sequence can be found in patent US20230013244A1 (BioIncept, LLC, priority 2014, published 2023).

Assay [1] concerns PBMCs (CD3+, CD4+/CD25+/FoxP3+, CD8+/CD25+ cells). The assay can be described thus: FITC-PIF binding to naive T-cell subsets of PBMCs, two- and three-color flow cytometry. In kind it is cell-based, human.
The subject of assay [2] is Lymphocytes. Put plainly: FITC-PIF binding to mare immune cells, flow cytometry, lymphocytes. In kind it is cell-based. From the text: (§1) Method: whole blood was collected from jugular vein of pregnant (n=4) and non-pregnant (n=8) mares into lithium heparin vacutainers. Whole blood was layered over histopaque (Sigma) density gradient and red cells were allowed to settle through the gradient, leaving a leukocyte-rich plasma layer above. Cells were washed twice in sterile PBS and any remaining RBCs lysed with 0.16 M ammonium chloride solution. […] Cell types were separated based upon their scatter characteristics. […] FIG. 20 and Table 20 show mean+/−SEM in both pregnant and non-pregnant mares, and depicts binding characteristics showing significant differences between FITC-PIF and control, P<0.001.

For assay [3], the system named is Granulocytes. The assay can be described thus: FITC-PIF binding to mare immune cells, flow cytometry, granulocytes. It counts as cell-based.
Description: as §1

For assay [4], the system named is Monocytes. The assay can be described thus: FITC-PIF binding to mare immune cells, flow cytometry, monocytes. In kind it is cell-based.
Description: as §1

For “GRVDPSNKSMPKDIA [PIFscr, scrambled PIF, control peptide]”, in assay [1] (0-100 uM), the “binding to CD4+/CD25+/FoxP3+ cells” value is recorded as “minimal binding”. For the same sequence, the “binding to CD3+/CD4+ cells” value in assay [1] (FIG. 10A) was “not replicated”. For the same sequence, the “binding to Lymphocytes, Mean” value in assay [2] (Non-pregnant mares, 1 ug/ml) was determined as 0.27; in assay [2] (Pregnant mares, 1 ug/ml), 0.12; in assay [2] (Pregnant mares, 5 ug/ml) it was 0.78. Moreover, the “binding to Granulocytes, Mean” value in assay [3] (Non-pregnant mares, 1 ug/ml) is given as 0.26; in assay [3] (Pregnant mares, 1 ug/ml), 0.09; in assay [3] (Pregnant mares, 5 ug/ml), 0.93. For the same sequence, the “binding to Monocytes, Mean” value in assay [4] (Non-pregnant mares, 1 ug/ml) is 1.10; in assay [4] (Non-pregnant mares, 5 ug/ml), 5.20; in assay [4] (Pregnant mares, 1 ug/ml), 0.78.
